Assay results reported in patent US20190060308A1, “PHARMACEUTICAL COMPOSITION COMPRISING AN OMEGA-3 FATTY ACID AND A HYDROXY-DERIVATIVE OF A STATIN AND METHODS OF USING SAME” (Amarin Pharmaceuticals Ireland Limited, priority 2012, published 2019).

Legend:
[1] = system: human umbilical vein epithelial cells (HUVECs); assay: NO and ONOO^− release by HUVECs following stimulation with oxidized LDL (Example 2); assay type: cell-based; details: calcium ionophore 1.0 μM, oxLDL 10 mg/dL, EPA 10.0 μM, rosuvastatin or ATM 1.0 μM
Protocol: An experiment was conducted to test the effects of EPA with rosuvastatin or atorvastatin active o-hydroxyl metabolite (“ortho-hydroxy atorvastatin” or “ATM”) on nitric oxide (NO) and peroxynitrite (ONOO^−) release by human umbilical vein epithelial cells (“HUVECs”) following stimulation with oxidized LDL. Nitric oxide bioavailability, peroxynitrite bioavailability, and the ratio of bioavailable nitric oxide to bioavailable peroxynitrite (NO/ONOO^−) serve as useful indicators of endothelial cell function. In particular, the NO/ONOO^− ratio can serve as an indicator of normal epithelial cell function.
In this experiment, HUVECs were equipped with prophyrinic nanosensors and then treated with calcium ionophore (1.0 μM). The HUVECs were then exposed to a solution of oxidized LDL (10 mg/dL).
HUVECs exposed to oxLDL were then treated with EPA alone (10.0 μM), a combination of EPA (10.0 μM) and rosuvastatin (1.0 μM), or a combination of EPA (10.0 μM) and ATM (1.0 μM).

[2] = system: human umbilical vein endothelial cells (HUVECs); assay: NO and ONOO^− release from HUVECs exposed to oxLDL, tandem electrochemical nanosensors (Example 3); assay type: cell-based; details: for increase in NO/ONOO^− ratio: versus treatment with oxLDL and vehicle only, statin 1.0 μM
Protocol: An experiment was conducted to test the effects of EPA with rosuvastatin, atorvastatin or o-hydroxyatorvastatin (an active hydroxyl metabolite, “ATM”) on nitric oxide (NO) and peroxynitrite (ONOO^−) release by human umbilical vein epithelial cells (“HUVECs”) following stimulation with oxidized LDL. Nitric oxide bioavailability, peroxynitrite bioavailability, and the ratio of bioavailable nitric oxide to bioavailable peroxynitrite (NO/ONOO^−) serve as useful indicators of endothelial cell function. In particular, the NO/ONOO^− ratio can serve as an indicator of normal epithelial cell function.
Human umbilical vein endothelial cells (HUVECs) were isolated into primary cultures from female donors by Clonetics (San Diego, Calif.) and purchased as proliferating cells. All cell culture donors were healthy, with no pregnancy or prenatal complications. […] The confluent cells (4 to 5×10^5 cells/35 mm dish) were placed with minimum essential medium containing 3 mM L-arginine and 0.1 mM BH4 [(6R)-5,6,7,8-tetrahydrobiopterin]. Before experimental use, the cells (from second or third passage) were rinsed twice with Tyrode-HEPES buffer with 1.8 mM CaCl2).
The effects of EPA treatment were tested in the absence and presence of statins in HUVECs following exposure to oxidized LDL (oxLDL). The oxLDL causes eNOS uncoupling and endothelial dysfunction to reproduced disease-like conditions. Venous blood from healthy normolipidemic volunteers was collected into Na-EDTA (1 mg/mL blood) vacuum tubes after a 12-hour fast. Plasma was immediately separated by centrifugation at 3,000 g for 10 minutes at 4° C. […] The purified LDL was dialyzed for 96 hours against PBS containing 0.3 mM EDTA at 4° C., then stored at 4° C.
A sample of LDL was dialyzed against Tris/NaCl Buffer (50 mM Tris in 0.15 M NaCl, pH 8.0) to remove the EDTA. Tris-NaCl buffer was added to the dialyzed n-LDL to adjust the protein concentration to 30 mg/mL. A 1-mL aliquot of 20 μM CuSO4 was added to 1 mL of dialyzed normal LDL. Oxidation at 37° C. was followed spectrophotometrically (234 nm) over a period of 24 hours until oxidation was complete. The oxLDL was then dialyzed at 4° C. with 4 L of Tris buffer, filtered with a 0.22 μm filter, and stored under nitrogen at 4° C.
Oxidation was monitored by the use of measurements of TBARS. Briefly, LDL was incubated with thiobarbituric acid (0.5 wt/vol, in H2SO4, 50 mM) for 30 minutes at 100° C. […] TBARS concentration was determined as malondialdehyde (MDA) equivalents with the use of an MDA standard curve.
Concurrent measurements of NO and ONOO^− were performed with tandem electrochemical nanosensors combined into one working unit with a total diameter of 200-400 nm. Their design was based on previously developed and chemically modified carbon-fiber technology. Each of the nanosensors was made by depositing a sensing material on the tip of a carbon fiber (length 4 to 5 μm, diameter 100-200 nm). The fibers were sealed with nonconductive epoxy and electrically connected to copper wires with conductive silver epoxy. Conductive films of polymeric Ni(II) tetrakis (3-methoxy-4-hydroxyphenyl) porphyrin and Mn(III) [2.2] paracyclophanylporphyrin were used for the NO and ONOO^− sensors, respectively.
The amperometric method (with a response time of 0.1 ms) provides a quantitative signal (current) that is directly proportional to changes (from basal levels) in NO or ONOO^− concentration. Amperometric measurements were performed with a Gamry III double-channel potentiostat. Basal NO or ONOO^− levels were measured by differential pulse voltammetry in separate experiments.
All measurements of NO and ONOO^− were performed on intact endothelial cells. The NO/ONOO^− nanosensor module was positioned 5±2 μm from the surface of each individual endothelial cell using a computer-controlled M3301 micromanipulator (x-y-z resolution of 0.2 μm) and microscope (both from World Precision Instruments, Berlin, Germany) fitted with a CD camera.

[3] = HUVECs exposed to oxLDL, EPA 10 μM
[4] = compared to treatment with oxLDL and vehicle only, EPA 10 μM

Structure (SMILES)	NO [1] [nM]	NO/ONOO^− [1]	ONOO^− [1] [nM]	increase in NO/ONOO^− ratio ([2]; EPA 10 μM) [%]	NO release [2, 3] [nM]	ONOO^− release [2, 3] [nM]	increase in NO release [2, 4] [%]	reduction of ONOO^− release [2, 4] [%]	increase in NO/ONOO^− ratio (in words) ([2]; HUVECs exposed to oxLDL, VAS2870 alone or with EPA and statin)
CC(C)c1c(C(=O)Nc2ccccc2O)c(-c2ccccc2)c(-c2ccc(F)cc2)n1CC[C@@H](O)C[C@@H](O)CC(=O)O [ATM, o-hydroxyatorvastatin]	199 ± 20	0.8	236 ± 35	33	–	–	–	–	–
CC/C=C\C/C=C\C/C=C\C/C=C\C/C=C\CCCC(=O)O [EPA, eicosapentaenoic acid]	208 ± 32	1.0	203 ± 21	41	208 ± 32	203 ± 21	18	16	–
c1ccc(Cn2nnc3c(Sc4nc5ccccc5o4)ncnc32)cc1 [VAS2870]	–	–	–	–	–	–	–	–	two-fold
CC(C)c1c(C(=O)Nc2ccccc2)c(-c2ccccc2)c(-c2ccc(F)cc2)n1CC[C@@H](O)C[C@@H](O)CC(=O)O [atorvastatin]	–	–	–	84	–	–	–	–	–
CC(C)c1nc(N(C)S(C)(=O)=O)nc(-c2ccc(F)cc2)c1/C=C/[C@@H](O)C[C@@H](O)CC(=O)O [rosuvastatin]	191 ± 33	0.8	252 ± 39	21	–	–	–	–	–
